Measured values: patent US20050053704A1, “Acidic composition and its uses” (Mionix Corporation, priority 2003, published 2005)
Where two headings read alike, the source gives them in different places.

Legend:
L. monocytogenes [1] = conditions: dipping in 5% acid, refrigerated storage; cited from earlier work
L. monocytogenes [2] = conditions: cited from earlier work
[3] = Contact of acidic solution with human skin; conditions: solution with a pH of less than 0.5

Structure (SMILES): CC(=O)O [acetic acid]
- Effect on L. monocytogenes of dipping in acid (L. monocytogenes [1]): not only killed, but also prevented from growing during 90 days of refrigerated storage

Structure (SMILES): CC(O)C(=O)O (stereo not drawn) [lactate]
- Effect on growth of L. monocytogenes (L. monocytogenes [2]; lactate (4%), sterile broth, chicken and beef (Shelef and Yang 1991)): growth suppression
- Listeristatic effect, L. monocytogenes strain Scott A (L. monocytogenes [2]; lactate concentrations less than 4%, meat model system (Chen and Shelef 1992)): not listeristatic

Structure (SMILES): CC(O)C(=O)O (stereo not drawn) [lactic acid]
- Effect on L. monocytogenes of dipping in acid (L. monocytogenes [1]): not only killed, but also prevented from growing during 90 days of refrigerated storage

Structure (SMILES): O=S(=O)(O)O [sulfuric acid]
- Irritation of a hand put into the solution [3]: an irritation would occur within a relatively short span of time

Structure (SMILES): CC(O)C(=O)[O-].[Na+] (stereo not drawn) [Sodium lactate]
- Effect on growth of L. monocytogenes (L. monocytogenes [2]; 3 or 4% compared to 0 or 2%, cooked beef stored at 10° C. (Miller and Acuff 1994)): effective against the growth
